Laboratory results as given in ChEMBL document CHEMBL3813624, “Discovery of hydroxyl 1,2-diphenylethanamine analogs as potent cholesterol ester transfer protein inhibitors” (Bioorg Med Chem Lett, 2016).
Values after ≈ are worked out from the molar mass of the structure shown. Active and inactive are the calls of the source. The calls are words filed in the database; no cut-off is given here.

Columns and labels:
[1] = biological target: T1, Cholesteryl ester transfer protein (Homo sapiens, UniProt P11597); test: Inhibition of human recombinant CETP assessed as reduction in [3H]cholesteryl ester transfer from [3H]CE-HDL to biotinylated LDL by scintillation proximity assay
T1 sequence (P11597 whole entry): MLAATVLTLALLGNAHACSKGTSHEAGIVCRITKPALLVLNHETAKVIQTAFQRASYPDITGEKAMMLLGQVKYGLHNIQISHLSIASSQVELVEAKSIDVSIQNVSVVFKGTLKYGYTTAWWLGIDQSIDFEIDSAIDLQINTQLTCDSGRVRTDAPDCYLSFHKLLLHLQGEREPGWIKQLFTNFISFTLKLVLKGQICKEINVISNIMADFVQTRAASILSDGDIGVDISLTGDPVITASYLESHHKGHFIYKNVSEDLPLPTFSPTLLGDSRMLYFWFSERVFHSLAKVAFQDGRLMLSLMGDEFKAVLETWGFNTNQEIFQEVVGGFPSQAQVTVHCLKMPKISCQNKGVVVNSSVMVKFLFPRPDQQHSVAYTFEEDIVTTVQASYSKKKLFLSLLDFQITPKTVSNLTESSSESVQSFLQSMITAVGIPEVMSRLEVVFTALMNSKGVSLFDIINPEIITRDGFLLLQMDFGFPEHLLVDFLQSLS

[2] = biological target: T1, Cholesteryl ester transfer protein; test: Inhibition of CETP in human whole plasma assessed as reduction in [3H]cholesteryl ester transfer from [3H]CE-HDL to LDL/VLDL; assay type: cell-free
[3] = Aqueous solubility of compound; assay type: physicochemical; conditions: buffer
[4] = biological target: T2, Voltage-gated inwardly rectifying potassium channel KCNH2 (Homo sapiens, UniProt Q12809); test: Inhibition of recombinant human ERG flux expressed in HEK293 cells by patch clamp assay; assay type: cell-based
T2 sequence (Q12809 whole entry): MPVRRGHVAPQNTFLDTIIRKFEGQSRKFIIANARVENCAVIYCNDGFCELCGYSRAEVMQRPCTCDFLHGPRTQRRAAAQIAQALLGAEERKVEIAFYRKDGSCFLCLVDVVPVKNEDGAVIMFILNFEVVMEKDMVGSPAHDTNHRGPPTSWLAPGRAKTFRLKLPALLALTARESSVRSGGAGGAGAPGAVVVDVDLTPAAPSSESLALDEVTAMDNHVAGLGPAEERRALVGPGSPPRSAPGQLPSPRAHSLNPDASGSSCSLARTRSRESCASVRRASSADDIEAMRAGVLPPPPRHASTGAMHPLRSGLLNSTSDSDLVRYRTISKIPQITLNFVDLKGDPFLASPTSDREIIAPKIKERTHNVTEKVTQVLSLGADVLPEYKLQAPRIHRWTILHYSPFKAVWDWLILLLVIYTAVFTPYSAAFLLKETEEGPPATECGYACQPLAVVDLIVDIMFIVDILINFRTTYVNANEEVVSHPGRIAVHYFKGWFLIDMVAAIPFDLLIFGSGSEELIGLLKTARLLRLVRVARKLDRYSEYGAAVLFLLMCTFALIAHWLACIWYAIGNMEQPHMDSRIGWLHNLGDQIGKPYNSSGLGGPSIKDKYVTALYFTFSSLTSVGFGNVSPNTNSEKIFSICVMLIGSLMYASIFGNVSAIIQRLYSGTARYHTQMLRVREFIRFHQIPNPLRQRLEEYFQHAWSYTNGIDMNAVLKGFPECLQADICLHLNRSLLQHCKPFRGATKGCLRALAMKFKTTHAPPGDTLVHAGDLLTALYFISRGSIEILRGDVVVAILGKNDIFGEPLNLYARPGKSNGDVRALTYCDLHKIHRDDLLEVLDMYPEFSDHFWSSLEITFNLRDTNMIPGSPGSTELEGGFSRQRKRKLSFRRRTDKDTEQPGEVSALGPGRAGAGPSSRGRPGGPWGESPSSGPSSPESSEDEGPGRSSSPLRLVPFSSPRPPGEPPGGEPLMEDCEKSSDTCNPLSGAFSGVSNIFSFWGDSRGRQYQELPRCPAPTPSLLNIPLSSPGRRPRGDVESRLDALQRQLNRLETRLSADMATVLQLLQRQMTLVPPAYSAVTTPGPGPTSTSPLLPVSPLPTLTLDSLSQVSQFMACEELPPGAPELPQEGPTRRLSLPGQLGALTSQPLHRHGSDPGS

[5] = Metabolic stability in human liver microsomes assessed as compound remaining at 3 uM after 10 mins by UV absorbance method; assay type: ADME; conditions: read-out: Stability
[6] = Metabolic stability in mouse liver microsomes assessed as compound remaining at 3 uM after 10 mins by UV absorbance method; assay type: ADME; conditions: read-out: Stability
[7] = Metabolic stability in rat liver microsomes assessed as compound remaining at 3 uM after 10 mins by UV absorbance method; assay type: ADME; conditions: read-out: Stability
Mus musculus [8] = test: In vivo inhibition of human CETP-mediated [3H]cholesteryl ester transfer in human CETP expressed transgenic mouse coexpressing ApoB-100 at 30 mg/kg, po measured at 2 to 8 hrs post dose; assay type: functional, organism-based
[9] = Plasma concentration in dual transgenic mouse expressing human CETP/ApoB-100 at 30 mg/kg, po measured at 2 hrs post dose; assay type: ADME, organism-based
[10] = Plasma concentration in dual transgenic mouse expressing human CETP/ApoB-100 at 30 mg/kg, po measured at 4 hrs post dose; assay type: ADME, organism-based
[11] = Plasma concentration in dual transgenic mouse expressing human CETP/ApoB-100 at 30 mg/kg, po measured at 8 hrs post dose; assay type: ADME, organism-based
[12] = AUC (0 to 8 hrs) in dual transgenic mouse plasma expressing human CETP/ApoB-100 at 30 mg/kg, po; assay type: ADME, organism-based; design: dose 30 mg/kg, time < 8 hr, route oral
[13] = Ratio of plasma concentration in dual transgenic mouse expressing human CETP/ApoB-100 at 30 mg/kg, po measured at 2 hrs post dose to IC50 for CETP in human whole plasma; assay type: ADME, organism-based; conditions: in vivo
[14] = Ratio of plasma concentration in dual transgenic mouse expressing human CETP/ApoB-100 at 30 mg/kg, po measured at 4 hrs post dose to IC50 for CETP in human whole plasma; assay type: ADME, organism-based; conditions: in vivo
hERG (KCNH2) [15] = biological target: T3, hERG (KCNH2) (Homo sapiens, UniProt Q12809); test: Inhibition of recombinant human ERG expressed in HEK293 cells assessed as inhibition of peak tail current at 1 uM by patch clamp assay relative to control; assay type: cell-based; conditions: HEK293 cells expressing recombinant human ERG
T3 sequence (Q12809 whole entry): as above

hERG (KCNH2) [16] = biological target: T3, hERG (KCNH2); test: Inhibition of recombinant human ERG expressed in HEK293 cells assessed as inhibition of peak tail current at 3 uM by patch clamp assay relative to control; assay type: cell-based; conditions: HEK293 cells expressing recombinant human ERG
Oryctolagus cuniculus [17] = test: Cardiotoxicity in rabbit assessed as QT prolongation up to 10 mg/kg by electrophysiology method; assay type: toxicity, organism-based; conditions: in vivo
Oryctolagus cuniculus [18] = test: Cardiotoxicity in rabbit assessed as changes in QT interval up to 10 mg/kg by electrophysiology method; assay type: toxicity, organism-based; conditions: in vivo
Oryctolagus cuniculus [19] = test: Cardiotoxicity in rabbit assessed as changes in QTcf interval up to 10 mg/kg by electrophysiology method; assay type: toxicity, organism-based; conditions: in vivo
Oryctolagus cuniculus [20] = test: Cardiotoxicity in rabbit assessed as changes in QTcv interval up to 10 mg/kg by electrophysiology method; assay type: toxicity, organism-based; conditions: in vivo
Oryctolagus cuniculus [21] = test: Cardiotoxicity in rabbit assessed as QT prolongation at 30 mg/kg by electrophysiology method; assay type: toxicity, organism-based; conditions: in vivo
Oryctolagus cuniculus [22] = test: Cardiotoxicity in rabbit assessed as QRS prolongation at 30 mg/kg by electrophysiology method; assay type: toxicity, organism-based; conditions: in vivo
Mus musculus [23] = test: In vivo inhibition of human CETP-mediated [3H]cholesteryl ester transfer in human CETP expressed transgenic mouse coexpressing ApoB-100 at 3 to 10 mg/kg, po measured at 8 hrs post dose relative to control; assay type: functional
[24] = biological target: T2, Voltage-gated inwardly rectifying potassium channel KCNH2; test: Inhibition of recombinant human ERG expressed in HEK293 cells assessed as inhibition of peak tail current by patch clamp assay; assay type: cell-based
[25] = Plasma concentration in dual transgenic mouse expressing human CETP/ApoB-100 at 1 mg/kg, po measured at 2 hrs post dose; assay type: ADME, organism-based
[26] = Plasma concentration in dual transgenic mouse expressing human CETP/ApoB-100 at 3 mg/kg, po measured at 2 hrs post dose; assay type: ADME, organism-based
[27] = Plasma concentration in dual transgenic mouse expressing human CETP/ApoB-100 at 10 mg/kg, po measured at 2 hrs post dose; assay type: ADME, organism-based
[28] = Plasma concentration in dual transgenic mouse expressing human CETP/ApoB-100 at 1 mg/kg, po measured at 4 hrs post dose; assay type: ADME, organism-based
[29] = Plasma concentration in dual transgenic mouse expressing human CETP/ApoB-100 at 3 mg/kg, po measured at 4 hrs post dose; assay type: ADME, organism-based
[30] = Plasma concentration in dual transgenic mouse expressing human CETP/ApoB-100 at 10 mg/kg, po measured at 4 hrs post dose; assay type: ADME, organism-based
[31] = Plasma concentration in dual transgenic mouse expressing human CETP/ApoB-100 at 1 mg/kg, po measured at 8 hrs post dose; assay type: ADME, organism-based
[32] = Plasma concentration in dual transgenic mouse expressing human CETP/ApoB-100 at 3 mg/kg, po measured at 8 hrs post dose; assay type: ADME, organism-based
[33] = Plasma concentration in dual transgenic mouse expressing human CETP/ApoB-100 at 10 mg/kg, po measured at 8 hrs post dose; assay type: ADME, organism-based
[34] = AUC (0 to 8 hrs) in dual transgenic mouse plasma expressing human CETP/ApoB-100 at 1 mg/kg, po; assay type: ADME, organism-based; design: time < 8 hr, dose 1 mg/kg, route oral
[35] = AUC (0 to 8 hrs) in dual transgenic mouse plasma expressing human CETP/ApoB-100 at 3 mg/kg, po; assay type: ADME, organism-based; design: dose 3 mg/kg, time < 8 hr, route oral
[36] = AUC (0 to 8 hrs) in dual transgenic mouse plasma expressing human CETP/ApoB-100 at 10 mg/kg, po; assay type: ADME, organism-based; design: time < 8 hr, dose 10 mg/kg, route oral
[37] = Ratio of plasma concentration in dual transgenic mouse expressing human CETP/ApoB-100 at 10 mg/kg, po measured at 2 hrs post dose to IC50 for CETP in human whole plasma; assay type: ADME, organism-based; conditions: in vivo
[38] = Ratio of plasma concentration in dual transgenic mouse expressing human CETP/ApoB-100 at 10 mg/kg, po measured at 4 hrs post dose to IC50 for CETP in human whole plasma; assay type: ADME, organism-based; conditions: in vivo

Row | SMILES | IC50 [1] [nM] | IC50 [2] [nM] | solubility [3] [µg/mL] | remaining at 10 min, 3 µM [5] [%] | remaining at 10 min, 3 µM [6] [%] | remaining at 10 min, 3 µM [7] [%] | further results
1 | CO[C@H](CN[C@@](Cc1ccccc1)(c1cc(F)cc(C(F)(F)F)c1)c1ccc(Cl)cn1)C(F)(F)F | 253 | 48000 | < 1 | – | – | – | –
2 | C[C@H](O)CN[C@@](Cc1ccccc1)(c1cc(F)cc(C(F)(F)F)c1)c1ccc(Cl)cn1 | 334 | 20000 | < 1 | – | – | – | –
3 | CC(C)Oc1cc([C@@](Cc2ccccc2)(NC[C@H](O)C(F)(F)F)c2cc(F)cc(OC(F)(F)C(F)F)c2)ccc1F | 2.9 | 238 | – | – | – | – | IC50 [4]: 12000 nM
4 | O[C@H](CN[C@@](Cc1ccccc1)(c1cc(F)cc(OC(F)(F)C(F)F)c1)c1ccc(Cl)cn1)C(F)(F)F | 14 | 900 | – | 100 | 88 | 84 | inhibition (Mus musculus [8]): Active; concentration at 2 h [9]: 5200 nM; concentration at 4 h [10]: 3000 nM; concentration at 8 h [11]: 1300 nM; AUC(0-t) at 8 h [12]: 26.9 µM·h; Ratio [13]: 5.7; Ratio [14]: 3.3; inhibition at 1 µM (hERG (KCNH2) [15]): 43%; inhibition at 3 µM (hERG (KCNH2) [16]): 87%; Activity (Oryctolagus cuniculus [17]): Non-toxic; Activity (Oryctolagus cuniculus [18]): Non-toxic; Activity (Oryctolagus cuniculus [19]): Non-toxic; Activity (Oryctolagus cuniculus [20]): Non-toxic; Activity (Oryctolagus cuniculus [21]): Toxic; Activity (Oryctolagus cuniculus [22]): Toxic
5 | CC(C)Oc1cc([C@@](Cc2ccccc2)(NC[C@@H](O)CC(F)(F)F)c2cc(F)cc(OC(F)(F)C(F)F)c2)ccc1F | 2.5 | 169 | – | – | – | – | IC50 [4]: 23000 nM
6 | O[C@H](CN[C@@](Cc1ccccc1)(c1cc(F)cc(C(F)(F)F)c1)c1ccc(Cl)cn1)C(F)(F)F | 22 | 1600 | < 1 | 100 | 95 | 88 | –
7 | O=C(N[C@@](Cc1ccccc1)(c1cc(F)cc(C(F)(F)F)c1)c1ccc(Cl)cn1)c1ccc(F)c(C(F)(F)F)c1 | 52 | 7000 | < 1 | 93 | 100 | 97 | –
8 | OC(CN[C@@](Cc1ccccc1)(c1cc(F)cc(OC(F)(F)C(F)F)c1)c1ccc(Cl)cn1)CC(F)(F)F (stereo partly specified) | 1.5 | 600 | – | 100 | 88 | 87 | concentration at 2 h [9]: 5400 nM; concentration at 4 h [10]: 2600 nM; concentration at 8 h [11]: 490 nM; AUC(0-t) at 8 h [12]: 18.1 µM·h
9 | OC[C@H](O)CN[C@@](Cc1ccccc1)(c1cc(F)cc(C(F)(F)F)c1)c1ccc(Cl)cn1 | 8530 | – | 44 (≈ 93.8 µM) | – | – | – | –
10 | O=C(CN[C@@](Cc1ccccc1)(c1cc(F)cc(C(F)(F)F)c1)c1ccc(Cl)cn1)CC(F)(F)F | 641 | 30000 | < 1 | – | – | – | –
11 | CC(C)Oc1cc([C@@](Cc2ccccc2)(NC[C@H](O)CC(F)(F)F)c2cc(F)cc(OC(F)(F)C(F)F)c2)ccc1F | 1.3 | 49 | – | 83 | 85 | 83 | inhibition (INH) (Mus musculus [23]): 50%; IC50 [24]: 25600 nM; IC50 [4]: 28000 nM; concentration at 2 h [25]: 180 nM; concentration at 2 h [26]: 380 nM; concentration at 2 h [27]: 960 nM; concentration at 4 h [28]: 54 nM; concentration at 4 h [29]: 89 nM; concentration at 4 h [30]: 250 nM; concentration at 8 h [31]: 28 nM; concentration at 8 h [32]: 45 nM; concentration at 8 h [33]: 92 nM; AUC(0-t) at 8 h [34]: 0.543 µM·h; AUC(0-t) at 8 h [35]: 1.04 µM·h; AUC(0-t) at 8 h [36]: 2.66 µM·h; Ratio [37]: 19; Ratio [38]: 5
12 | CC(C)Oc1cc([C@@](Cc2ccccc2)(NC[C@@H](O)C(F)(F)F)c2cc(F)cc(OC(F)(F)C(F)F)c2)ccc1F | 1.8 | 55 | – | 83 | 85 | 83 | IC50 [4]: 21000 nM
13 | OC(CN[C@@](Cc1ccccc1)(c1cc(F)cc(C(F)(F)F)c1)c1ccc(Cl)cn1)CC(F)(F)F (stereo partly specified) | 9 | 1200 | < 1 | 93 | 73 | 69 | –
14 | C[C@@H](O)CN[C@@](Cc1ccccc1)(c1cc(F)cc(C(F)(F)F)c1)c1ccc(Cl)cn1 | 520 | 32000 | < 1 | – | – | – | –
15 | OC[C@@H](O)CN[C@@](Cc1ccccc1)(c1cc(F)cc(C(F)(F)F)c1)c1ccc(Cl)cn1 | 3100 | 98000 | 37 (≈ 78.9 µM) | – | – | – | –
16 | CC(=O)O[C@H](CN[C@@](Cc1ccccc1)(c1cc(F)cc(C(F)(F)F)c1)c1ccc(Cl)cn1)C(F)(F)F | 826 | 100000 | < 1 | – | – | – | –
